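All cell lines were grown in 96-well plates and treated with compound for 48 hours. Abbreviation: GI50, concentration required for 50% inhibition of growth.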 The source made the active and inactive calls. No stated cut-off is given here; in the data, active = GI50 up to about 1.1 µM and inactive = higher.
Columns and labels:
Assay in all cases: inhibition of tumour cell growth, NCI panel, 48 h
A549 = tested on: A549
CAKI-1 = tested on: CAKI-1
CCRF-CEM = tested on: CCRF-CEM
HCC 2998 = tested on: HCC 2998
HL-60 = tested on: HL-60
HOP-62 = tested on: HOP-62
IGROV-1 = tested on: IGROV-1
MOLT-4 = tested on: MOLT-4
NCI-H226 = tested on: NCI-H226
OVCAR-4 = tested on: OVCAR-4
SK-MEL-5 = tested on: SK-MEL-5
SK-OV-3 = tested on: SK-OV-3
SNB-19 = tested on: SNB-19
SW-620 = tested on: SW-620
TK-10 = tested on: TK-10
UACC-62 = tested on: UACC-62
HOP-92 = tested on: HOP-92

Compound | GI50 (A549) | GI50 (CAKI-1) | GI50 (CCRF-CEM) | GI50 (HCC 2998) | GI50 (HL-60) | GI50 (HOP-62) | GI50 (IGROV-1) | GI50 (MOLT-4) | GI50 (NCI-H226) | GI50 (OVCAR-4) | GI50 (SK-MEL-5) | GI50 (SK-OV-3) | GI50 (SNB-19) | GI50 (SW-620) | GI50 (TK-10) | GI50 (UACC-62) | GI50 (HOP-92)
CC(=O)c1ccccc1NC(=O)C(=O)C(C(=O)c1ccccc1-c1ccccc1)C1OC(=O)c2ccccc21 (centres undefined) | 25.5 µM (inactive) | 37.8 µM (inactive) | 25.1 µM (inactive) | 16.2 µM (inactive) | 23.9 µM (inactive) | 20.1 µM (inactive) | 22.2 µM (inactive) | 24.8 µM (inactive) | 14.9 µM (inactive) | 33.7 µM (inactive) | 19.1 µM (inactive) | 31.8 µM (inactive) | 22.1 µM (inactive) | 34.3 µM (inactive) | 14.9 µM (inactive) | 20.7 µM (inactive) | 
N#CCC(=O)Nc1cccc(C(F)(F)F)c1 | > 100 µM (inactive) | > 100 µM (inactive) | > 100 µM (inactive) | > 100 µM (inactive) | > 100 µM (inactive) | > 100 µM (inactive) | > 100 µM (inactive) | > 100 µM (inactive) | > 100 µM (inactive) | > 100 µM (inactive) | > 100 µM (inactive) | > 100 µM (inactive) | > 100 µM (inactive) | > 100 µM (inactive) | > 100 µM (inactive) | > 100 µM (inactive) | 
CC(C)C1=CC(=O)C(C)(C2=NC(C)(C)CO2)c2ccccc21 (centres undefined) | > 100 µM (inactive) | > 100 µM (inactive) | > 100 µM (inactive) |  | > 100 µM (inactive) | > 100 µM (inactive) | > 100 µM (inactive) | 67.3 µM (inactive) | 51.5 µM (inactive) | > 100 µM (inactive) | > 100 µM (inactive) | 88.5 µM (inactive) | > 100 µM (inactive) | > 100 µM (inactive) | > 100 µM (inactive) | > 100 µM (inactive) | > 100 µM (inactive)
CCCCCCCCCCCCCC(=O)NCO | > 100 µM (inactive) |  | > 100 µM (inactive) | > 100 µM (inactive) | > 100 µM (inactive) | > 100 µM (inactive) | > 100 µM (inactive) |  | > 100 µM (inactive) | > 100 µM (inactive) | > 100 µM (inactive) | > 100 µM (inactive) | > 100 µM (inactive) | > 100 µM (inactive) | > 100 µM (inactive) | > 100 µM (inactive) | > 100 µM (inactive)
CCCP1(=O)C=C(C)C(=C(Cl)Cl)C(C)=C1 (centres undefined) | 33.7 µM (inactive) |  | 39.5 µM (inactive) | 32.3 µM (inactive) | 21.6 µM (inactive) | 49.3 µM (inactive) | 70 µM (inactive) | 31 µM (inactive) |  | > 100 µM (inactive) | 24.1 µM (inactive) |  |  | 32.1 µM (inactive) | > 100 µM (inactive) | 44 µM (inactive) | 24.2 µM (inactive)
CC/C=C\C/C=C\C1CC(=O)NCCCNCCCCN1 (centres undefined) | > 100 µM (inactive) | > 100 µM (inactive) |  | > 100 µM (inactive) | > 100 µM (inactive) | > 100 µM (inactive) |  |  | 59.7 µM (inactive) | > 100 µM (inactive) | > 100 µM (inactive) |  | > 100 µM (inactive) | > 100 µM (inactive) | > 100 µM (inactive) |  | > 100 µM (inactive)
O=[N+]([O-])c1cc(-c2nnc(S)[nH]2)ccc1O | > 100 µM (inactive) | > 100 µM (inactive) | > 100 µM (inactive) | > 100 µM (inactive) | > 100 µM (inactive) | > 100 µM (inactive) | > 100 µM (inactive) |  |  | > 100 µM (inactive) | > 100 µM (inactive) | > 100 µM (inactive) | > 100 µM (inactive) | 4.06 µM (inactive) | > 100 µM (inactive) | > 100 µM (inactive) | 
O=C1C2=C(c3ccccc31)C(c1ccc([N+](=O)[O-])cc1)NC(S)=N2 (centres undefined) | 48.5 µM (inactive) | > 100 µM (inactive) | 38.7 µM (inactive) |  | 35.6 µM (inactive) | > 100 µM (inactive) | 50 µM (inactive) | 35.4 µM (inactive) | 19.2 µM (inactive) | 42.6 µM (inactive) | 27.4 µM (inactive) | > 100 µM (inactive) | 97.3 µM (inactive) | 81.1 µM (inactive) | > 100 µM (inactive) | 43.5 µM (inactive) | 51.1 µM (inactive)
Cc1nnc2c3nnc(C)n3c3ccccc3n12 | > 100 µM (inactive) | > 100 µM (inactive) | > 100 µM (inactive) | > 100 µM (inactive) |  | > 100 µM (inactive) | > 100 µM (inactive) | > 100 µM (inactive) | > 100 µM (inactive) | > 100 µM (inactive) | > 100 µM (inactive) | > 100 µM (inactive) | > 100 µM (inactive) | > 100 µM (inactive) | > 100 µM (inactive) | > 100 µM (inactive) | > 100 µM (inactive)
COc1c(C)n(CCO)ccc1=O | > 100 µM (inactive) | > 100 µM (inactive) | > 100 µM (inactive) |  | > 100 µM (inactive) | > 100 µM (inactive) |  | > 100 µM (inactive) | > 100 µM (inactive) | > 100 µM (inactive) | > 100 µM (inactive) | > 100 µM (inactive) | > 100 µM (inactive) | > 100 µM (inactive) | > 100 µM (inactive) | > 100 µM (inactive) | > 100 µM (inactive)
Cc1ccc(NC(=O)C(=O)Cc2cccc[n+]2[O-])cc1C | > 100 µM (inactive) | > 100 µM (inactive) | > 100 µM (inactive) | > 100 µM (inactive) | > 100 µM (inactive) | > 100 µM (inactive) | > 100 µM (inactive) | > 100 µM (inactive) | > 100 µM (inactive) | > 100 µM (inactive) | > 100 µM (inactive) | > 100 µM (inactive) | > 100 µM (inactive) | > 100 µM (inactive) | > 100 µM (inactive) | > 100 µM (inactive) | 
Cc1ccc(NC(=O)CCCC(=O)CC(=O)c2ccc(Br)cc2)cc1 | > 100 µM (inactive) | > 100 µM (inactive) | > 100 µM (inactive) | > 100 µM (inactive) |  | > 100 µM (inactive) | > 100 µM (inactive) | > 100 µM (inactive) | > 100 µM (inactive) | > 100 µM (inactive) | > 100 µM (inactive) | > 100 µM (inactive) | > 100 µM (inactive) | > 100 µM (inactive) | > 100 µM (inactive) | > 100 µM (inactive) | > 100 µM (inactive)
CCCCCCCCCCCCCC(=O)OCC(C[As](=O)(O)O)OC(=O)CCCCCCCCCCCCC (centres undefined) | > 100 µM (inactive) | > 100 µM (inactive) | > 100 µM (inactive) | > 100 µM (inactive) |  | > 100 µM (inactive) | > 100 µM (inactive) | > 100 µM (inactive) | > 100 µM (inactive) | > 100 µM (inactive) | > 100 µM (inactive) | > 100 µM (inactive) | > 100 µM (inactive) | 18.6 µM (inactive) | > 100 µM (inactive) | > 100 µM (inactive) | 86.5 µM (inactive)
Brc1ccc(C[P+]2(c3ccccc3)CCCCC2)cc1.[O-][Cl+3]([O-])([O-])[O-] | > 100 µM (inactive) |  | 82 µM (inactive) | 36.9 µM (inactive) | 20.4 µM (inactive) | > 100 µM (inactive) | 81.3 µM (inactive) | > 100 µM (inactive) | > 100 µM (inactive) |  | 17.5 µM (inactive) | > 100 µM (inactive) | 61.4 µM (inactive) | 79.1 µM (inactive) | 99.5 µM (inactive) | 41.1 µM (inactive) | 
CC(=O)NNc1nc(C)c(C(=O)/C=C/c2ccc(/C=C/C(=O)c3sc(NNC(C)=O)nc3C)cc2)s1 | > 100 µM (inactive) | > 100 µM (inactive) | > 100 µM (inactive) | > 100 µM (inactive) | > 100 µM (inactive) | > 100 µM (inactive) | > 100 µM (inactive) | > 100 µM (inactive) | > 100 µM (inactive) | > 100 µM (inactive) |  | > 100 µM (inactive) | > 100 µM (inactive) | > 100 µM (inactive) | > 100 µM (inactive) | > 100 µM (inactive) | 
O=C1/C(=C/c2ccc(Cl)cc2)COc2ccc(Br)cc21 | > 100 µM (inactive) |  | 61.1 µM (inactive) | > 100 µM (inactive) | > 100 µM (inactive) | > 100 µM (inactive) | > 100 µM (inactive) | > 100 µM (inactive) |  |  | > 100 µM (inactive) | > 100 µM (inactive) |  | > 100 µM (inactive) | > 100 µM (inactive) |  | > 100 µM (inactive)
CCOC(=O)COc1ccc(OCC(=O)OCC)c2c1C(=O)CCCC2=O | > 100 µM (inactive) |  | > 100 µM (inactive) | > 100 µM (inactive) | > 100 µM (inactive) | > 100 µM (inactive) | 3.13 µM (inactive) | > 100 µM (inactive) | > 100 µM (inactive) |  | 0.26 µM (active) | > 100 µM (inactive) | > 100 µM (inactive) | > 100 µM (inactive) | > 100 µM (inactive) | > 100 µM (inactive) | > 100 µM (inactive)
NC(=O)CCC(NC(=O)C(F)(F)F)C(=O)O (centres undefined) | > 100 µM (inactive) | > 100 µM (inactive) | > 100 µM (inactive) | > 100 µM (inactive) |  | > 100 µM (inactive) | > 100 µM (inactive) | > 100 µM (inactive) | > 100 µM (inactive) | > 100 µM (inactive) | > 100 µM (inactive) | > 100 µM (inactive) | > 100 µM (inactive) | > 100 µM (inactive) | > 100 µM (inactive) | > 100 µM (inactive) | > 100 µM (inactive)

— ChEMBL document CHEMBL1201862, “PubChem BioAssay data set” (2004)
